From PubChem BioAssay AID248 (DTP/NCI, 2004)
Where “and” joins values, the source holds several entries; their conditions need not be identical. Equal entries are not always repeated. Toxic doses and inconclusive results are not listed. No stated cut-off is given here; in the data, active means T/C of 150% or more; inactive means T/C below 125%.

Tested on: L1210 leukemia ip in BDF1 mice, survival T/C
Assay: NCI In Vivo Anticancer Drug Screen. Data for tumor model L1210 Leukemia (intraperitoneal) in B6D2F1 (BDF1) mice
Details: endpoint: mean survival time, higher = longer survival
Method in brief: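 Tumor cells were implanted, animals were treated, and survival was followed. The result divides the treated measurement by the vehicle-control measurement.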

[1] = dose: 100.0 mg/kg/injection, schedule: Q04DX003 (ip), vehicle: Klucel (hydroxypropylcellulose) (HPC)
[2] = dose: 100.0 mg/kg/injection, schedule: Q04DX003 (ip), vehicle: saline
[3] = dose: 100.0 mg/kg/injection, schedule: Q04DX003 (ip), vehicle: saline with Tween-80
[4] = dose: 200.0 mg/kg/injection, schedule: Q04DX003 (ip), vehicle: saline with Tween-80
[5] = dose: 400.0 mg/kg/injection, schedule: Q04DX003 (ip), vehicle: saline with Tween-80
[6] = dose: 200.0 mg/kg/injection, schedule: Q04DX003 (ip), vehicle: saline
[7] = dose: 400.0 mg/kg/injection, schedule: Q04DX003 (ip), vehicle: saline
[8] = dose: 100.0 mg/kg/injection, schedule: Q04DX002 (ip), vehicle: Klucel (hydroxypropylcellulose) (HPC)
[9] = dose: 50.0 mg/kg/injection, schedule: Q01DX001 (ip), vehicle: carboxymethylcellulose (CMC)
[10] = dose: 100.0 mg/kg/injection, schedule: Q01DX001 (ip), vehicle: carboxymethylcellulose (CMC)
[11] = dose: 200.0 mg/kg/injection, schedule: Q01DX001 (ip), vehicle: carboxymethylcellulose (CMC)
[12] = dose: 400.0 mg/kg/injection, schedule: Q01DX001 (ip), vehicle: carboxymethylcellulose (CMC)
[13] = dose: 100.0 mg/kg/injection, schedule: Q04DX002 (ip), vehicle: saline with Tween-80
[14] = dose: 200.0 mg/kg/injection, schedule: Q04DX002 (ip), vehicle: saline with Tween-80
[15] = dose: 100.0 mg/kg/injection, schedule: Q01DX001 (ip), vehicle: saline
[16] = dose: 200.0 mg/kg/injection, schedule: Q01DX001 (ip), vehicle: saline
[17] = dose: 400.0 mg/kg/injection, schedule: Q01DX001 (ip), vehicle: saline
[18] = dose: 400.0 mg/kg/injection, schedule: Q04DX002 (ip), vehicle: saline with Tween-80

Measured: T/C

CC(N)Cc1ccc2c(c1)OCO2 (stereo not drawn)
inactive: dose: 6.0 mg/kg/injection, schedule: Q01DX009 (ip), vehicle: saline 104 % of control | dose: 6.25 mg/kg/injection, schedule: Q01DX009 (ip), vehicle: saline 103 % of control | dose: 12.0 mg/kg/injection, schedule: Q01DX009 (ip), vehicle: saline 98 % of control | dose: 12.5 mg/kg/injection, schedule: Q01DX009 (ip), vehicle: saline 93 % of control | dose: 25.0 mg/kg/injection, schedule: Q01DX009 (ip), vehicle: saline 106 % of control and 98 % of control and 102 % of control | dose: 25.0 mg/kg/injection, schedule: Q04DX003 (ip), vehicle: saline 103 % of control and 96 % of control | dose: 50.0 mg/kg/injection, schedule: Q01DX009 (ip), vehicle: saline 108 % of control | dose: 50.0 mg/kg/injection, schedule: Q04DX003 (ip), vehicle: saline 103 % of control and 97 % of control | [1] 93 % of control | [2] 110 % of control

Oc1ccc(CCNCc2ccc3c(c2)OCO3)cc1
inactive: dose: 100.0 mg/kg/injection, schedule: Q01DX001 (ip), vehicle: Klucel (hydroxypropylcellulose) (HPC) 88 % of control | dose: 200.0 mg/kg/injection, schedule: Q01DX001 (ip), vehicle: Klucel (hydroxypropylcellulose) (HPC) 88 % of control | dose: 400.0 mg/kg/injection, schedule: Q01DX001 (ip), vehicle: Klucel (hydroxypropylcellulose) (HPC) 88 % of control

Cc1ccc(S(=O)(=O)OC2C(C)C3C2S(=O)(=O)C3(C)C)cc1 (stereo not drawn)
inactive: [3] 102 % of control | [4] 104 % of control | [5] 102 % of control

CCOC(=O)COc1ccc(N=NN(C)c2ccccc2)cc1
inactive: dose: 111.0 mg/kg/injection, schedule: Q01DX Z (ip), vehicle: carboxymethylcellulose (CMC) 102 % of control | dose: 166.0 mg/kg/injection, schedule: Q01DX Z (ip), vehicle: carboxymethylcellulose (CMC) 104 % of control | dose: 250.0 mg/kg/injection, schedule: Q01DX Z (ip), vehicle: carboxymethylcellulose (CMC) 113 % of control

C1CN(CC2COC(CN3CCOCC3)CO2)CCO1 (stereo not drawn)
inactive: [2] 106 % of control | [6] 97 % of control | [7] 98 % of control

CC1(C)CC(N=Cc2ccccc2O)CC(C)(C)N1O.CC1(C)CC(N=Cc2ccccc2O)CC(C)(C)N1O.[Zn]
inactive: dose: 25.0 mg/kg/injection, schedule: Q04DX002 (ip), vehicle: Klucel (hydroxypropylcellulose) (HPC) 91 % of control | dose: 50.0 mg/kg/injection, schedule: Q04DX002 (ip), vehicle: Klucel (hydroxypropylcellulose) (HPC) 91 % of control | [8] 94 % of control

Nc1nc(N)nc(CC(=O)O)n1
inactive: [9] 95 % of control | [10] 90 % of control | [11] 95 % of control | [12] 93 % of control

CC1=NN(c2cccc(S(=O)(=O)O)c2)C(=O)C1
inactive: [3] 105 % of control | [4] 101 % of control | [5] 89 % of control

Cc1c2oc3c(C)ccc(C(=O)OCCN4CCCCC4)c3nc-2c(C(=O)OCCN2CCCCC2)c(N)c1=O
inactive: [13] 113 % of control | [14] 98 % of control

CSCCC(C)C
inactive: dose: 50.0 mg/kg/injection, schedule: Q01DX009 (ip), vehicle: saline with Tween-80 112 % of control | dose: 100.0 mg/kg/injection, schedule: Q01DX009 (ip), vehicle: saline with Tween-80 106 % of control | [3] 95 % of control | dose: 200.0 mg/kg/injection, schedule: Q01DX009 (ip), vehicle: saline with Tween-80 95 % of control | [4] 103 % of control

COc1cc(Cl)c(/C=C2\N=C(c3ccccc3)OC2=O)cc1OC
inactive: dose: 50.0 mg/kg/injection, schedule: Q01DX001 (ip), vehicle: saline 94 % of control | [15] 91 % of control | [16] 97 % of control | [17] 94 % of control

c1ccc2c(c1)Nc1cc3ccccc3cc1O2
inactive: [9] 101 % of control | [10] 92 % of control | [11] 97 % of control | [12] 90 % of control

COc1ccc(C(=O)/C=C/c2cccc3ccccc23)cc1
inactive: [13] 86 % of control | [14] 86 % of control | [18] 86 % of control

CCCCCCCCCCCCCCCCCC(=O)OCC(COC(=O)CCCCCCCC(CO)CCCCCCCCC)OC(=O)CCCCCCCC(CO)CCCCCCCCC (stereo not drawn)
inactive: [8] 101 % of control | dose: 200.0 mg/kg/injection, schedule: Q04DX002 (ip), vehicle: Klucel (hydroxypropylcellulose) (HPC) 101 % of control | dose: 400.0 mg/kg/injection, schedule: Q04DX002 (ip), vehicle: Klucel (hydroxypropylcellulose) (HPC) 101 % of control

O=[As]1(c2cccc3ccccc23)c2ccccc2Cc2ccccc21
inactive: dose: 83.0 mg/kg/injection, schedule: Q01DX Z (ip), vehicle: methylcellulose (MC) 86 % of control | dose: 125.0 mg/kg/injection, schedule: Q01DX Z (ip), vehicle: methylcellulose (MC) 86 % of control

CCOC(=O)Oc1ccc(Br)cc1Br
inactive: [15] 104 % of control | dose: 100.0 mg/kg/injection, schedule: Q01DX009 (ip), vehicle: carboxymethylcellulose (CMC) 93 % of control and 96 % of control | dose: 100.0 mg/kg/injection, schedule: Q04DX002 (ip), vehicle: saline 99 % of control | [2] 103 % of control | [16] 102 % of control | dose: 200.0 mg/kg/injection, schedule: Q01DX009 (ip), vehicle: carboxymethylcellulose (CMC) 94 % of control and 97 % of control | dose: 200.0 mg/kg/injection, schedule: Q04DX002 (ip), vehicle: saline 92 % of control | [6] 95 % of control | [17] 104 % of control | dose: 400.0 mg/kg/injection, schedule: Q01DX009 (ip), vehicle: carboxymethylcellulose (CMC) 92 % of control and 93 % of control | dose: 400.0 mg/kg/injection, schedule: Q04DX002 (ip), vehicle: saline 104 % of control | [7] 102 % of control

O=[N+]([O-])c1cccc([I+]c2cccc([N+](=O)[O-])c2)c1
inactive: [13] 100 % of control | [1] 96 % of control | [14] 92 % of control | dose: 200.0 mg/kg/injection, schedule: Q04DX003 (ip), vehicle: Klucel (hydroxypropylcellulose) (HPC) 104 % of control | [18] 100 % of control | dose: 400.0 mg/kg/injection, schedule: Q04DX003 (ip), vehicle: Klucel (hydroxypropylcellulose) (HPC) 91 % of control
